This experiment has as its target T1, full-length human PKCι (Homo sapiens, UniProt P41743).
T1 construct: Recombinant, full-length human PKCι expressed in Sf21 insect cells is also commercially available; purchased; host or cells: Sf21 insect cells
T1 sequence (P41743 1-596): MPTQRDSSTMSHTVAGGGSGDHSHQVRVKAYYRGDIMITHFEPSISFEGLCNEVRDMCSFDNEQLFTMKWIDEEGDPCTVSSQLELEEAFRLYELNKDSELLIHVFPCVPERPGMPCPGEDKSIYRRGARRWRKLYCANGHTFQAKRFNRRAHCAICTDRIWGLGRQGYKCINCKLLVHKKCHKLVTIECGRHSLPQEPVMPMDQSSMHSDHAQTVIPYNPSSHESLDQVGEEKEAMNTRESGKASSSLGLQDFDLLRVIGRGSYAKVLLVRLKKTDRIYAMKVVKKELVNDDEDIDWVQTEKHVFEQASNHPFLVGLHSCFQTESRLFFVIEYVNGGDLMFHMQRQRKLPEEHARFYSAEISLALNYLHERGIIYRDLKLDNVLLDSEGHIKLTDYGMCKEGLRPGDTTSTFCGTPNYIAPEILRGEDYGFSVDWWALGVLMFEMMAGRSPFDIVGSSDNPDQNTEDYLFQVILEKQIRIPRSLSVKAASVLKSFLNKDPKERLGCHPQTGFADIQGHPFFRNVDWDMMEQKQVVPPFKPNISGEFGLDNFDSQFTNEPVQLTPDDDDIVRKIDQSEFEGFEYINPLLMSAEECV
The experiment in a line: PKCι IC50 IMAP assay, full-length PKCι at 150 μM ATP. The experiment is classed as biochemical. Conditions: read-out: IC50 in IMAP assay against full length PKCi at 150 μM ATP. Put shortly: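 IC50 from IMAP FP (ex 485/em 530 nm) after 60 min room-temperature reaction in pH 7.5 tris buffer with 9 mM MgCl2 and 0.9 mM DTT. Enzyme: full-length Sf21-expressed PKCι (~15 pM); ATP 150 μM, five times KM^APP; FAM-labelled peptide 100 nM; DMSO 4%.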

One may read the IC50 as the midpoint of a concentration-inhibition curve. For `Fc1cnc2[nH]ccc2c1-c1nc(N2CCNCC2)c2c(C3CC3)cncc2n1` [Example 1226, 5-Cyclopropyl-2-(5-fluoro-1H-pyrrolo[2,3-b]pyridin-4-yl)-4-piperazin-1-yl-pyrido[3,4-d]pyrimidine], the IC50 was less than 100 nM. Take `COc1cc(Nc2cc(-c3nc(N4CCNCC4)c4c(C5CC5)cncc4n3)ccn2)cc(OC)c1OC` [Example 611, [4-(5-Cyclopropyl-4-piperazin-1-yl-pyrido[3,4-d]pyrimidin-2-yl)-pyridin-2-yl]-(3,4,5-trimethoxy-pheny)-amine]: the IC50 fell in the range of 100 to 1000 nM. `COc1cncc2nc(-c3ccnc(NC(=O)CN4CCOCC4)c3)nc(N3CCNCC3)c12` [Example 209, N-[4-(5-Methoxy-4-piperazin-1-yl-pyrido[3,4-d]pyrimidin-2-yl)-pyridin-2-yl]-2-morpholin-4-yl-acetamide]: the IC50 was in the range of 100 to 1000 nM.

For `Cc1ccc(C(C)C)cc1Nc1cc(-c2nc(N3CCNCC3)c3c(C4CC4)cncc3n2)ccn1` [Example 558, [4-(5-Cyclopropyl-4-piperazin-1-yl-pyrido[3,4-d]pyrimidin-2-yl)-pyridin-2-yl]-(5-isopropyl-2-methyl-phenyl)-amine], the IC50 lay in the range of 100 to 1000 nM. Turning to `Clc1nccc2c(N3CCN[C@@H](Cc4ccccc4)C3)nc(-c3ccncc3)nc12` [Example 68, (3S)-3-benzyl-1-[8-chloro-2-(pyridin-4-yl)pyrido[3,4-d]-pyrimidin-4-yl]-piperazine], the IC50 was in the range of 100 to 1000 nM. In the case of `CC(C)(C)c1cc2c(-c3nc(N4CCNCC4)c4c(Br)cncc4n3)ccnc2[nH]1` [Example 2120, 5-Bromo-2-(2-tert-butyl-1H-pyrrolo[2,3-b]pyridin-4-yl)-4-piperazin-1-yl-pyrido[3,4-d]pyrimidine] it was less than 100 nM; in that of `COc1cccc(Nc2cc(-c3nc(N4CCNCC4)c4c(C5CC5)cncc4n3)ccn2)c1C` [Example 591, [4-(5-Cyclopropyl-4-piperazin-1-yl-pyrido[3,4-d]pyrimidin-2-yl)-pyridin-2-yl]-(3-methoxy-2-methyl-phenyl)-amine], less than 100 nM.

In the case of `Cn1cc(-c2nccc3c(NC[C@@H](N)Cc4ccccc4)nc(-c4ccncc4)nc23)cn1` [Example 98, N-[(2S)-2-amino-3-phenylpropyl]-8-(1-methyl-1H-pyrazol-4-yl)-2-(pyridin-4-yl)-pyrido[3,4-d]-pyrimidin-4-amine], the IC50 lay in the range of 1000 to 10000 nM. Regarding `c1ccn2nc(Nc3cc(-c4nc(N5CCNCC5)c5c(C6CC6)cncc5n4)ccn3)nc2c1` [Example 743, [4-(5-Cyclopropyl-4-piperazin-1-yl-pyrido[3,4-d]pyrimidin-2-yl)-pyridin-2-yl]-[1,2,4]triazolo[1,5-a]pyridin-2-yl-amine], the IC50 was less than 100 nM. On to `COc1cncc2nc(-c3ccnc(Nc4c(F)ccc(F)c4F)c3)nc(N3CCN[C@@H](CF)C3)c12` [Example 237, {4-[4-((R)-3-Fluoromethyl-piperazin-1-yl)-5-methoxy-pyrido[3,4-d]pyrimidin-2-yl]-pyridin-2-yl}-(2,3,6-trifluoro-phenyl)-amine], for which the IC50 lay within 1000 to 10000 nM. For `COc1cncc2nc(-c3ccnc(Nc4nc(C(F)(F)F)co4)c3)nc(N3CCNCC3)c12` [Example 202, [4-(5-Methoxy-4-piperazin-1-yl-pyrido[3,4-d]pyrimidin-2-yl)-pyridin-2-yl]-(4-trifluoromethyl-oxazol-2-yl)-amine] the value was less than 100 nM; for `Fc1cnc(Nc2cc(-c3nc(N4CCNCC4)c4c(C5CC5)cnc(Cl)c4n3)ccn2)c(F)c1` [Example 2148, [4-(8-Chloro-5-cyclopropyl-4-piperazin-1-yl-pyrido[3,4-d]pyrimidin-2-yl)-pyridin-2-yl]-(3,5-difluoro-pyridin-2-yl)-amine], less than 100 nM. For `CC(Nc1cc(-c2nc(N3CCNCC3)c3c(C4CC4)cncc3n2)ccn1)C1CCCO1` (centres unmarked) [Example 2066, [4-(5-Cyclopropyl-4-piperazin-1-yl-pyrido[3,4-d]pyrimidin-2-yl)-pyridin-2-yl]-[1-(tetrahydro-furan-2-yl)-ethyl]-amine] the value was less than 100 nM; for `CCN1CCP(=O)(c2ccc(Nc3cc(-c4nc(N5CCNCC5)c5c(C6CC6)cncc5n4)ccn3)c(OC)c2)CC1` [Example 625, [4-(5-Cyclopropyl-4-piperazin-1-yl-pyrido[3,4-d]pyrimidin-2-yl)-pyridin-2-yl]-[4-(1-ethyl-4-oxo-4λ^5-[1,4]azaphos-phinan-4-yl)-2-methoxy-phenyl]-amine], 100 to 1000 nM. For `N[C@H](CNc1nc(-c2ccncc2)nc2c(-c3ccccc3O)nccc12)Cc1ccccc1` [Example 105, 2-(4-{[(2S)-2-amino-3-phenylpropyl]-amino}-2-(pyridin-4-yl)-pyrido[3,4-d]-pyrimidin-8-yl)phenol] the value was less than 100 nM; for `CNc1nc(-c2ccnc(Nc3cccc(N4CCNCC4)c3)c2)nc2cncc(OC)c12` [Example 500, {5-Methoxy-2-[2-(3-piperazin-1-yl-phenylamino)-pyridin-4-yl]-pyrido[3,4-d]pyrimidin-4-yl}-methyl-amine], 100 to 1000 nM. As for `Fc1cccc(F)c1Nc1cc(-c2nc(OC3CCNCC3)c3c(C4CC4)cncc3n2)ccn1` [Example 757, {4-[5-Cyclopropyl-4-(piperidin-4-yloxy)-pyrido[3,4-d]pyrimidin-2-yl]-pyridin-2-yl}-(2,6-difluoro-phenyl)-amine], the IC50 was in the range of 100 to 1000 nM.

As to `N[C@H](CNc1nc(-c2ccncc2F)nc2cnccc12)Cc1ccccc1` [Example 10, N-[(2S)-2-amino-3-phenylpropyl]-2-(3-fluoropyridin-4-yl)pyrido[3,4-d]-pyrimidin-4-amine], the IC50 was 100 to 1000 nM.

With `COc1cncc2nc(-c3ccnc4[nH]ccc34)nc(N3CCN[C@@H](CO)C3)c12` [Example 1206, {(R)-4-[5-Methoxy-2-(1H-pyrrolo[2,3-b]pyridin-4-yl)-pyrido[3,4-d]pyrimidin-4-yl]-piperazin-2-yl}-methanol], the IC50 was less than 100 nM. For `COc1cncc2nc(-c3ccnc(Nc4ccccc4)c3)nc(N3CCC[C@H](O)C3)c12` [Example 425, (S)-1-[5-Methoxy-2-(2-phenylamino-pyridin-4-yl)-pyrido[3,4-d]pyrimidin-4-yl]-piperidin-3-ol] the value was 1000 to 10000 nM; for `CN(c1nc(-c2ccnc(Nc3ncc(Cl)cc3F)c2)nc2cncc(C3CC3)c12)C1CCNCC1` [Example 2151, {2-[2-(5-Chloro-3-fluoro-pyridin-2-ylamino)-pyridin-4-yl]-5-cyclopropyl-pyrido[3,4-d]pyrimidin-4-yl}-methyl-piperidin-4-yl-amine], less than 100 nM; for `CN(c1nc(-c2ccnc3[nH]c(C(F)(F)F)cc23)nc2cncc(C3CC3)c12)[C@@H]1CCNC1` [Example 2088, [5-Cyclopropyl-2-(2-trifluoromethyl-1H-pyrrolo[2,3-b]pyridin-4-yl)-pyrido[3,4-d]pyrimidin-4-yl]-methyl-(R)-pyrrolidin-3-yl-amine], less than 100 nM. For `Fc1cccc(F)c1-c1cc2c(-c3nc(N4CCNCC4)c4c(C5CCC5)cncc4n3)ccnc2[nH]1` [Example 2144, 5-Cyclobutyl-2-[2-(2,6-difluoro-phenyl)-1H-pyrrolo[2,3-b]pyridin-4-yl]-4-piperazin-1-yl-pyrido[3,4-d]pyrimidine] the value was less than 100 nM; for “4-{5-(4-Cyano-pyridin-2-ylamino)-2-[2-(4-cyano-pyridin-2-ylamino)-pyridin-4-yl]-pyrido[3,4-d]pyrimidin-4-yl}-piperazine [Example 249]”, less than 100 nM; for `OC[C@H](Nc1cc(-c2nc(N3CCNCC3)c3c(C4CC4)cncc3n2)ccn1)c1ccccc1` [Example 2159, (R)-2-[4-(5-Cyclopropyl-4-piperazin-1-yl-pyrido[3,4-d]pyrimidin-2-yl)-pyridin-2-ylamino]-2-phenyl-ethanol], 100 to 1000 nM. In the case of `Cc1cc2c(-c3nc(N4CCNC(C(F)(F)F)C4)c4c(C5CC5)cncc4n3)ccnc2[nH]1` (centres unmarked) [Example 1215, 5-Cyclopropyl-2-(2-methyl-1H-pyrrolo[2,3-b]pyridin-4-yl)-4-(3-trifluoromethyl-piperazin-1-yl)-pyrido[3,4-d]pyrimidine] it was less than 100 nM. In the case of `COc1cncc2nc(-c3ccnc(NC(=O)[C@H](C)c4ccccc4)c3)nc(N[C@@H]3CCNC3)c12` [Example 406, (R)-N-{4-[5-Methoxy-4-((R)-pyrrolidin-3-ylamino)-pyrido[3,4-d]pyrimidin-2-yl]-pyridin-2-yl}-2-phenyl-propionamide], the IC50 lay in the range of 100 to 1000 nM. In the case of `CNC(=O)C1CCCN(c2nc(-c3ccnc(Nc4c(F)cccc4F)c3)nc3cncc(C4CC4)c23)C1` (centres unmarked) [Example 707, 1-{5-Cyclopropyl-2-[2-(2,6-difluoro-phenylamino)-pyridin-4-yl]-pyrido[3,4-d]pyrimidin-4-yl}-piperidine-3-carboxylic acid methylamide] it was 10000 to 40000 nM. Consider `CCNC(=O)N[C@H](CNc1nc(-c2ccncc2)nc2cnccc12)Cc1ccccc1` [Example 85, 3-ethyl-1-(1-phenyl-3-{[2-(pyridin-4-yl)pyrido[3,4-d]pyrimidin-4-yl]amino}propan-2-yl)urea], for which the IC50 is 10000 to 40000 nM.

Values taken from patent publication US9914730B2, “Azaquinazoline inhibitors of Atypical protein Kinase C” (Ignyta, Inc., priority 2012, dated 2018).
